The record followed here is patent publication US7511065B2, “Mixed lineage kinase modulators” (Eli Lilly and Company, priority 2002, dated 2009).

Counter-ions that a name gives are not always drawn.

This test addresses T1, MLK-7 (Homo sapiens, UniProt Q9NYL2).
T1 construct: GST; His tag; made in house; host or cells: Sf9 insect cells (baculovirus, pVL1392)
Nature of the test: In vitro assay of purified MLK-7 kinase activity (33P transfer from ATP to myelin basic protein). It counts as biochemical. The conditions noted are these: recombinant GST-tagged MLK-7 at 1 nm, 30 uM ATP, 5 uM MBP substrate, 2 hours room temperature; read-out: MLK7 IC50. The source says:
In Vitro Assay of Purified Mixed Lineage Kinase 7 (MLK-7) Activity:
Briefly, recombinant glutathione-s-transferase (GST) tagged MLK-7 is expressed in Sf9 cells using a recombinant baculovirus created using baculovirus transfer vector pVL1392 modified to contain a GST and histidine tag. The recombinant protein is purified over a glutathione column and subsequently used for in vitro kinase assays with myelin basic protein (MBP) as the substrate for phosphorylation. The in vitro kinase reaction is run with recombinant MLK-7 at 1 nm and various concentrations of test compound in a reaction mixture containing 2 mM DTT, 30 uM ATP, 5 mM MgCl2, 5 uM MBP, 4% DMSO, 5 uCi 33P in 44 mM HEPES, (pH 7.4). The reaction is carried out for 2 hours at room temperature and then stopped by the addition of phosphoric acid to 5.5%. The phosphorylated MBP is collected on a filter and radioactivity associated with the membrane measured using a scintillation counter. Inhibitors are identified by the ability to reduce the transfer of radioactive phosphate from ATP to MBP compared to controls run without test compound.
IC50 values, defined as the concentration of test compound required to decrease the transfer of radioactive phosphate from ATP to MBP by 50%, are then determined. Ki values (which refers to the dissociation constant of an enzyme-antagonist complex and serves as an index of ligand binding) for each respective test compound can also be calculated by application of the Cheng-Prusoff equation as described in Cheng et al., Relationship Between The Inhibition Constant (Ki) and The Concentration of Inhibitor Which Causes 50% Inhibition (IC50) of an Enzymatic Reaction, Biochem. Pharmacol., 22: […]; (1973).
Representative compounds of the present invention have an IC50 in the MLK-7 kinase assay of ≦10,000 nM Table I (see infra.) provides IC50 data from the afore mentioned MLK-7 kinase assay for a representative sample of the exemplified compounds of the present invention.
On to `c1ccc(-c2ccc3c(-c4c(-c5ccccn5)nn5c4CCC5)ccnc3c2)nc1` [Example 68, 7-Pyridin-2-yl-4-(2-Pyridin-2-yl-5,6-dihydro-4H-pyrrolo[1,2-b]pyrazol-3-yl)quinoline Ditrifluoroacetic Acid], for which the IC50 was no more than 0.1 µM.
Then `Cc1cccc(-c2nn3c(c2-c2ccnc4cc(-c5ccc(C(=O)O)cc5)ccc24)CCC3)n1` [Example 57, 4-{4-[2-(6-Methyl-pyridin-2-yl)-5,6-dihydro-4H-pyrrolo[1,2-b]pyrazol-3-yl]-quinolin-7-yl}-benzoic acid], with no more than 0.1 µM.
In the case of `c1ccc(-c2nn3c(c2-c2ccnc4cc(-c5cc6ccccc6o5)ccc24)CCC3)nc1` [Example 48, 7-Benzofuran-2-yl-4-(2-pyridin-2-yl-5,6-dihydro-4H-pyrrolo[1,2-b]pyrazol-3-yl)quinoline Trifluoroacetic Acid] it was no more than 0.1 µM; in that of `CCOC(=O)CCNC(=O)c1ccc(-c2ccc3c(-c4c(-c5ccccn5)nn5c4CCC5)ccnc3c2)cc1` [Example 128, 3-{4-[4-(2-Pyridin-2-yl-5,6-dihydro-4H-pyrrolo[1,2-b]pyrazol-3-yl)-quinolin-7-yl]-benzoylamino}-propionic Acid Ethyl Ester], no more than 0.1 µM; in that of `FC(F)(F)c1cc(-c2ccc3c(-c4c(-c5ccccn5)nn5c4CCC5)ccnc3c2)cc(C(F)(F)F)c1` [Example 42, 7-(3,5-Bis-trifluromethylphenyl)-4-(2-pyridin-2-yl-5,6-dihydro-4H-pyrrolo[1,2-b]pyrazol-3-yl)quinoline Trifluoroacetic Acid], no more than 10 µM.
In the case of `CS(=O)(=O)Nc1cccc(-c2ccc3c(-c4c(-c5ccccn5)nn5c4CCC5)ccnc3c2)c1` [Example 15, N-{3-[4-(2-Pyridin-2-yl-5,6-dihydro-4H-pyrrolo[1,2-b]pyrazol-3-yl)-quinolin-7-yl]-phenyl}methanesulfomamide Trifluoroacetic Acid] it was no more than 0.1 µM.
For the molecule `Cc1cc(F)ccc1-c1ccc2c(-c3c(-c4ccccn4)nn4c3CCC4)ccnc2c1` [Example 22, 7-(4-Fluoro-2-methylphenyl)-4-(2-pyridin-2-yl-5,6-dihydro-4H-pyrrolo[1,2-b]pyrazol-3-yl)quinoline Trifluoroacetic Acid], the IC50 was no more than 1 µM.
Then `N#Cc1ccc(-c2ccc3c(-c4c(-c5ccccn5)nn5c4CCC5)ccnc3c2)cc1` [Example 26, 4-[4-(2-Pyridin-2-yl-5,6-dihydro-4H-pyrrolo[1,2-b]pyrazol-3-yl)quinolin-7-yl]benzonitrile Trifluroacetic Acid], with no more than 0.1 µM; and “4-[4-(2-Pyridin-2-yl-5,6-dihydro-4H-pyrrolo[1,2-b]pyrazol-3-yl]phenylamine Ditrifluoroacetic Acid [Example 10]”, with no more than 0.1 µM.
In the case of `CC(=O)Nc1cccc(-c2ccc3c(-c4c(-c5ccccn5)nn5c4CCC5)ccnc3c2)c1` [Example 37, N-{3-[4-(2-pyridin-2-yl-5,6-dihydro-4H-pyrrolo[1,2-b]pyrazol-3-yl)quinolin-7-yl]phenyl}-acetamide Trifluoroacetic Acid] it was no more than 0.1 µM.
In the case of `COc1ccc(-c2ccc3c(-c4c(-c5ccccn5)nn5c4CCC5)ccnc3c2)nn1.O=C(O)C(F)F` [Example 84, 7-(6-Methoxypyridazin-3-yl)-4-(2-Pyridin-2-yl-5,6-dihydro-4H-pyrrolo[1,2-b]pyrazol-3-yl)quinoline Difluoroacetic Acid], the IC50 is no more than 0.1 µM.
Then `CCOc1cccc(-c2ccc3c(-c4c(-c5ccccn5)nn5c4CCC5)ccnc3c2)c1` [Example 18, 7-(3-Ethoxyphenyl)-4-(2-pyridin-2-yl-5,6-dihydro-4H-pyrrolo[1,2-b]pyrazol-3-yl)quinoline Trifluoroacetic Acid], with no more than 0.1 µM.
Take `O=C(O)C(F)F.c1ccc(-c2nn3c(c2-c2ccnc4cc(-c5cncnc5)ccc24)CCC3)nc1` [Example 88, 4-(2-pyridin-2-yl-5,6-dihydro-4H-pyrrolo[1,2-b]pyrazol-3-yl)-7-pyrimidin-5-yl-quinoline Difluoroacetic Acid]: the IC50 was no more than 1 µM.
In the case of `c1ccc(-c2nn3c(c2-c2ccnc4cc(-c5ccsc5)ccc24)CCC3)nc1` [Example 50, 4-(2-pyridin-2-yl-5,6-dihydro-4H-pyrrolo[1,2-b]pyrazol-3-yl)-7-thiophen-3-yl-quinoline Trifluoroacetic Acid] it was no more than 0.1 µM; in that of `c1ccc(-c2nn3c(c2-c2ccnc4cc(-c5ccncc5)ccc24)CCC3)nc1` [Example 34, 7-Pyridin-4-yl-4-(2-Pyridin-2-yl-5,6-dihydro-4H-pyrrolo[1,2-b]pyrazol-3-yl)quinoline Ditrifluoroacetic Acid], no more than 0.1 µM; in that of `NC(=O)COc1ccc(-c2ccc3c(-c4c(-c5ccccn5)nn5c4CCC5)ccnc3c2)cc1` [Example 117, 2-{4-[4-(2-Pyridin-2-yl-5,6-dihydro-4H-pyrrolo[1,2-b]pyrazol-3-yl)quinolin-7-yl]phenoxy}acetamide Trifluoroacetic Acid], no more than 0.1 µM.
Then `c1ccc(-c2nn3c(c2-c2ccnc4cc(-c5ccc6c(c5)OCO6)ccc24)CCC3)nc1` [Example 40, 7-Benzo[1,3]dioxol-5-yl-4-(2-pyridin-2-yl-5,6-dihydro-4H-pyrrolo[1,2-b]pyrazol-3-yl)quinoline Trifluoroacetic Acid], with no more than 0.1 µM; and “2-[4-(2-Pyridin-2-yl-5,6-dihydro-4H-pyrrolo[1,2-b]pyrazol-3-yl)quinolin-7-yl]phenyl}benzamide Trifluoroacetic Acid [Example 29]”, with no more than 10 µM; and `O=C(O)Cc1ccc(-c2ccc3c(-c4c(-c5ccccn5)nn5c4CCC5)ccnc3c2)cc1` [Example 74, {4-[4-(2-pyridin-2-yl-5,6-dihydro-4H-pyrrolo[1,2-b]pyrazol-3-yl)quinolin-7-yl]phenyl}acetic Acid Trifluoroacetic Acid], with no more than 0.1 µM.
Then `O=C(NC1CCS(=O)(=O)C1)c1ccc(-c2ccc3c(-c4c(-c5ccccn5)nn5c4CCC5)ccnc3c2)cc1` (racemic) [Example 129, (rac)-N-(1,1-Dioxo-tetrahydro-1λ^6-thiophen-3-yl)-4-[4-(2-pyridin-2-yl-5,6-dihydro-4H-pyrrolo[1,2-b]pyrazol-3-yl)-quinolin-7-yl]-benzamide], with no more than 0.1 µM; and `O=C(O)CC[C@H](NC(=O)c1ccc(-c2ccc3c(-c4c(-c5ccccn5)nn5c4CCC5)ccnc3c2)cc1)C(=O)O` [Example 146, 2(S)-{4-[4-(2-Pyridin-2-yl-5,6-dihydro-4H-pyrrolo[1,2-b]pyrazol-3-yl)-quinolin-7-yl]-benzoylamino}-pentanedioic Acid Trifluoroacetic Acid Salt], with no more than 0.1 µM.
With `CC(=O)Nc1ccc(-c2ccc3c(-c4c(-c5ccccn5)nn5c4CCC5)ccnc3c2)cc1` [Example 3], the IC50 is no more than 0.1 µM.
In the case of `NS(=O)(=O)c1ccc(-c2ccc3c(-c4c(-c5ccccn5)nn5c4CCC5)ccnc3c2)cc1` [Example 95, 4-[4-(2-Pyridin-2-yl-5,6-dihydro-4H-pyrrolo[1,2-b]pyrazol-3-yl)-quinolin-7-yl]-benzenesulfonamide], the IC50 was no more than 0.1 µM.
In the case of `c1ccc(-c2nn3c(c2-c2ccnc4cc(C5CCCCC5)ccc24)CCC3)nc1` [Example 72, 7-Cyclohexyl-4-(2-pyridin-2-yl-5,6-dihydro-4H-pyrrolo[1,2-b]pyrazol-3-yl)quinoline Trifluoroacetic Acid] it was no more than 10 µM; in that of `c1ccc(-c2nn3c(c2-c2ccnc4cc(-c5ccco5)ccc24)CCC3)nc1` [Example 65, 7-Furan-2-yl-4-(2-Pyridin-2-yl-5,6-dihydro-4H-pyrrolo[1,2-b]pyrazol-3-yl)quinoline Trifluoroacetic Acid], no more than 0.1 µM; in that of `c1ccc(-c2nn3c(c2-c2ccnc4cc(-c5cc6ccccc6s5)ccc24)CCC3)nc1` [Example 47, 7-Benzo[b]thiophen-2-yl-4-(2-pyridin-2-yl-5,6-dihydro-4H-pyrrolo[1,2-b]pyrazol-3-yl)quinoline Trifluoroacetic Acid], no more than 1 µM.
Then `Cc1cccc(-c2nn3c(c2-c2ccnc4cc(-c5ccc(F)cc5)ccc24)CCC3)n1` [Example 59, 7-(4-Fluoro-phenyl)-4-[2-(6-methyl-pyridin-2-yl)-5,6-dihydro-4H-pyrrolo[1,2-b]pyrazol-3-yl]-quinoline], with no more than 0.1 µM.
Then `c1ccc(-c2nn3c(c2-c2ccnc4cc(-n5ccnc5)ccc24)CCC3)nc1` [Example 98, 7-Imidazol-1-yl-4-(2-pyridin-2-yl-5,6-dihydro-4H-pyrrolo[1,2-b]pyrazol-3-yl)quinoline Ditrifluoroacetic Acid], with no more than 1 µM; and “7-(3,5-Dichlorophenyl)-4-(2-Pyridin-2-yl-5,6-dihydro-4H-pyrrolo[1,2-b]pyrazol-3-yl)quinoline Trifluoroacetic Acid [Example 31]”, with no more than 1 µM.
